# Experimental data published in US20030035851A1, “Anti-cancer agents and method of use thereof” (priority 2001, published 2003).
# Experiments:
# DU-145 cell cycle = assay: Cell cycle distribution by DNA flow cytometry, DU-145; type: cell-based; conditions: for cell cycle arrest phase / increase in the number of cells arrested in the S phase compared to the control / cells arrested in the G2M phase: DU-145; for increase in the number of cells arrested in the S phase compared to the control: FIG. 6
# LNCaP and DU-145 = assay: Cell growth inhibition of LNCaP and DU-145 by DES (FIG. 14); type: cell-based; conditions: previous study
# LNCaP cell cycle = assay: Cell cycle distribution by DNA flow cytometry, LNCaP; type: cell-based, Human; set-up: cells arrested in the G1 phase: dose or concentration left out as unconfirmed
# Excerpt: The cell cycle is the program for cell growth and cell proliferation (cell division). There are four phases of the cell cycle: G1, S, G2, and M. The G1 phase is characterized by gene expression and protein synthesis, and is regulated primarily by extracellular stimuli. During the S phase, the cell replicates its DNA. During the G2 phase, the cell undergoes growth and protein synthesis in preparation for cell division. The M phase is characterized by cytokinesis of the cell into two daughter cells.
# The effect of oridonin and lupulone on LNCaP cells was determined by the following method. 2×10^6-4×10^6 cultured cells were exposed to varying concentrations (e.g., 1.5 microgram/milliliter (ug/ml)-3 ug/ml) of oridonin or lupulone for 24-48 hours in 12.5 cm^2 area flasks before being harvested. The cells were washed with phosphate buffered saline (PBS) and fixed in ice-cold 70% ethanol.
# The distribution of cells in various stages of the cell cycle were determined by first staining the cells with the DNA specific fluorochrome, and then by measuring cellular DNA content with an ELITE ESP flow cytometer (Coulter Inc., Fl.) using UV laser illumination. The Multicycle program (Phoenix Flow Systems) was used to deconvolute the DNA frequency histograms to estimate the frequency of cells in different phases of the cell cycle, and those in apoptosis.
# DU-145 cells = assay: MTT cell proliferation assay, DU-145; type: cell-based; conditions: for ED50 values from MTT Assay, DU-145: concentration giving 50% inhibition of cancer cell growth, 72 hours, linear interpolation of FIGS. 1-3
# Protocol: (§1) The cells were routinely seeded at 1×10^5 cells/ml in T-75 flasks, allowed to attach overnight, and then treated with the oridonin or the lupulone. At different times, the cells were harvested by trypsinization.
# (§2) The inhibitory effect on a cell's ability to divide was determined by an MTT (3-(4,5-dimethylthiazol-2-yl)-2,5-diphenyl tetrazolium bromide) assay. The assay reagents were purchased from Boehringer Mannheim (Roche Diagnosis Corp, Indianapolis, Ind.). […] The MTT assay provides a method whereby cell proliferation can be determined by […]. The protocol for the cell viability assay was provided by Boehringer Mannheim and modified as described below.
# (§3) The cells were then incubated at […] and allowed to attach to the plates. After 24 hours, 20 microliter aliquots having varying concentrations of oridonin or lupulone were added to the cell culture. Each aliquot was plated into 3 wells to obtain mean values. […] The plates were incubated at 37° C. in a CO2 incubator for 72 hours. After 72 hours, the culture medium was carefully removed without disturbing the cells and replaced by 100 microliters of fresh cell medium. 10 microliters of MTT was added to each well and the plates were incubated in the CO2 incubator at 37° C. for 4 hours. Afterwards, 100 microliters of sodium dodecylsulfate (SDS) solubilizing reagent (from Boehringer Mannheim) was added to each well. The plates were placed in the CO2 incubator at 37° C. for about 10-14 hours. Afterwards, the cell concentration of each plate was determined by an ELISA Reader (EL800, Bio-Tek Instruments, Inc.) at a wavelength of […]. The percent cell viability was calculated according to the equation below: [formula]
# (§4) where V is the percent cell viability, Acontrol is the absorption of the control cells, and Atreated is the absorption of the treated cells.
# LNCaP cells [1] = assay: MTT cell proliferation assay, LNCaP; type: cell-based, Human; conditions: for ED50 values from MTT Assay, LNCaP: concentration giving 50% inhibition of cancer cell growth, 72 hours, linear interpolation of FIGS. 1-3
# Protocol: as §1, §2, §3, §4
# MCF-7 cell cycle = assay: Cell cycle distribution by DNA flow cytometry, MCF-7; type: cell-based; conditions: for cells arrested in the G1 phase: FIG. 7
# MCF-7 cells = assay: MTT cell proliferation assay, MCF-7; type: cell-based; conditions: for ED50 values from MTT Assay, MCF-7: concentration giving 50% inhibition of cancer cell growth, 72 hours, linear interpolation of FIGS. 1-3
# Protocol: as §1, §2, §3, §4
# Bcl-2 = assay: Flow cytometric measurement of Bcl-2 protein in LNCaP; type: cell-based, Human; conditions: 8.24 uM oridonin, flow cytometry, CTRL 11.3
# Protocol: To further verify the increase in Bax and the decrease in Bcl-2 proteins, and to determine the p53 protein levels induced by oridonin, flow cytometric measurement was performed to compare the results as obtained by Western blot. Following treatment with 3-9 μM of oridonin for 48 h, the LNCaP cells were trypsinized and washed with PBS. The cells were fixed in 1% formaldehyde in PBS on ice for 10 minutes and then permeabilized with 70% ethanol at −20° C. After fixation, the cells were rinsed with PBS, treated with a blocking solution containing 1% (w/v) bovine serum albumin (BSA) and 0.1% sodium azide in PBS (PBS-BSA) for 2 min at room temperature. […] The secondary antibody was added at 1:50 dilution for 30 minutes at room temperature in the dark, then counterstained for DNA by the addition of 1 ml of PI […] solution (final PI concentration 5 μg/ml) containing 100 μg/ml of RNAse A. Cellular fluorescence was measured with the ELITE ESP flow cytometer/cell sorter (Coulter Inc., Miami, Fla.) using the argon ion laser (emission at 488 nm). Fluorescence signals were collected using the standard configuration of the flow cytometer (green fluorescence for antibodies containing Bcl-2, Bax, and p53, and red fluorescence for DNA staining). 10,000 cells were analyzed per sample.
# LNCaP cells [2] = assay: TdT DNA strand break apoptosis assay, LNCaP; type: cell-based, Human; conditions: oridonin 13.7uM, 48 hours, FIG. 13
# Protocol: To determine apoptosis in cells, a quantitative assay for the detection of DNA breakage, using the terminal deoxyribonucleotide transferase (TdT) color reaction assay (TiterTACS, Trevigen, Gaithersburg, Md.), was employed. Cells were fixed in 1% ice-cold formaldehyde for 15 minutes and postfixed in 70% ethanol overnight at −20° C. DNA strand breaks were directly labeled with fluorescent (2′-deoxyuridine 5′-triphosphate) dUTP in the reaction catalyzed by exogenous terminal deoxynucleotidyltransferase using the APO-Direct kit (Phoenix Flow System, San Diego, Calif.) according to the protocol provided with the kit. The green (FITC) and red (PI) fluorescence intensities of cells subjected to labeling DNA strand breaks with the use of TdT were measured using a FACScan Flow Cytometer (Becton Dickinson Immunocytometry Systems, San Jose, Calif.). The data from 10^4 cells per sample were collected, stored and analyzed using CELL Quest software (Becton Dickinson and Co.).
# Bax = assay: Flow cytometric measurement of Bax protein in LNCaP; type: cell-based, Human; conditions: flow cytometry
# Protocol: (§5) To further verify the increase in Bax and the decrease in Bcl-2 proteins, and to determine the p53 protein levels induced by oridonin, flow cytometric measurement was performed to compare the results as obtained by Western blot. Following treatment with 3-9 μM of oridonin for 48 h, the LNCaP cells were trypsinized and washed with PBS. The cells were fixed in 1% formaldehyde in PBS on ice for 10 minutes and then permeabilized with 70% ethanol at −20° C. After fixation, the cells were rinsed with PBS, treated with a blocking solution containing 1% (w/v) bovine serum albumin (BSA) and 0.1% sodium azide in PBS (PBS-BSA) for 2 min at room temperature. The cells were subsequently added to a 100 μl aliquot of BSA/PBS solution containing 1:50 diluted primary antibody for Bcl-2, Bax (stained LNCaP) and p53. The mixtures were incubated at room temperature in the dark for 1 hr. The cells were subsequently washed twice with PBS-BSA buffer. The secondary antibody was added at 1:50 dilution for 30 minutes at room temperature in the dark, then counterstained for DNA by the addition of 1 ml of PI […] solution (final PI concentration 5 μg/ml) containing 100 μg/ml of RNAse A. Cellular fluorescence was measured with the ELITE ESP flow cytometer/cell sorter (Coulter Inc., Miami, Fla.) using the argon ion laser (emission at 488 nm). Fluorescence signals were collected using the standard configuration of the flow cytometer (green fluorescence for antibodies containing Bcl-2, Bax, and p53, and red fluorescence for DNA staining). 10,000 cells were analyzed per sample.
# [3] = tested on: Bax and Bcl-2 protein expression; assay: Western blot of Bax and Bcl-2 in LNCaP; type: cell-based, Human; conditions: 8.24 uM and 13.74 uM of oridonin, 48 hours, FIG. 11
# Protocol: To determine the Bcl-2:Bax ratio in oridonin-incubated LNCaP cells, a Western blotting procedure was performed. LNCaP cells were prepared such that one sample contained was incubated in the absence of oridonin, another sample in 8.24 uM of oridonin, and another sample in 13.74 uM of oridonin. The samples were incubated for 48 hours. Equal amounts of protein (10 micrograms) from LNCaP cell lysates were applied to a 10% SDS/PAGE (sodium dodecylsulfate/polyacrylamide gel electrophoresis) gel, and were then transferred to a PVDF membrane. The blots were probed with one of two primary antibodies comprising 1:100 Anti-Bax YTH-2D2 (Lot#3148E0, R&D, MN USA), and 1:100 Bcl-2 Oncoprotein (Clone 124, No. M0887), followed by second antibody exposure of 1:1000 Anti-mouse IgG-HRP (se-2005, Santa Cruz Biotechnology, USA) for 1 hour at […] temp. The immuno-binding signals were detected by the chemiluminescence method (ECL Western blotting system). The experiments were run in triplicates.
# p53 = assay: Flow cytometric measurement of p53 protein in LNCaP; type: cell-based, Human; conditions: for increase in p53 concentration: FIG. 12
# Protocol: as §5
# [4] = about 100 ug/ml of lupulone, FIG. 2
# [5] = about 5 ug/ml of oridonin, FIG. 1
compound,measurement,setting,value
"CC/C(=C(/CC)c1ccc(O)cc1)c1ccc(O)cc1 [DES, reference compound]",cell cycle arrest phase,DU-145 cell cycle; DES,G2M phase arrest
same,times more sensitive in inhibiting LNCaP than in inhibiting DU-145,LNCaP and DU-145,about 2.5 times
same,cell cycle arrest phase,LNCaP cell cycle; DES (30 μM per FIG. 15 legend),G2M phase arrest
"CC(C)=CCC1=C(O)C(CC=C(C)C)(CC=C(C)C)C(=O)C(C(=O)CC(C)C)=C1O [Lupulone, lupulone]",proliferation decreased compared to the control,DU-145 cells; [4],more than 55%
same,"ED50 values from MTT Assay, DU-145",DU-145 cells,89.7 µg/mL
same,proliferation decreased compared to the control,LNCaP cells [1]; [4],more than 75%
same,"ED50 values from MTT Assay, LNCaP",LNCaP cells [1],36.53 µg/mL
same,effect on cell cycle,MCF-7 cell cycle; 60 micromolar (25 microgram/milliliter),G1 phase arrest
same,effect on cell proliferation,MCF-7 cell cycle; 120 micromolar (50 microgram/milliliter),complete block of cell proliferation
same,proliferation decreased compared to the control,"MCF-7 cells; about 100 ug/ml of lupulone, FIG. 3",more than 85%
same,"ED50 values from MTT Assay, MCF-7",MCF-7 cells,56.62 µg/mL
same,increase of cells arrested in the G2M phase compared to cells not exposed,LNCaP cell cycle; lupulone (50 μg per FIG. 5 legend),about 100%
oridonin,proliferation decreased over that of the control,DU-145 cells; [5],more than 80%
same,"ED50 values from MTT Assay, DU-145",DU-145 cells,3.03 µg/mL
same,proliferation reduced over that of the control,LNCaP cells [1]; [5],about 75%
same,"ED50 values from MTT Assay, LNCaP",LNCaP cells [1],2.11 µg/mL
same,Bcl-2,Bcl-2,7.9
same,cell apoptosis,LNCaP cells [2],About 6%
same,cells arrested in the G1 phase,"DU-145 cell cycle; DU-145 (so in the source), about 8.20 uM-22 uM of oridonin, FIG. 10",over 60%
same,increase in the number of cells arrested in the S phase compared to the control,DU-145 cell cycle; 1.5 ug/ml of oridonin,~16%
same,increase in the number of cells arrested in the S phase compared to the control,DU-145 cell cycle; 3.0 ug/ml of oridonin,about 30%
same,cells arrested in the G2M phase,DU-145 cell cycle; FIG. 9d,about 37%
same,cells arrested in the G2M phase,"DU-145 cell cycle; about 8.20 uM-22 uM of oridonin, FIG. 10",30-55%
same,cell cycle arrest phase,DU-145 cell cycle; oridonin,G2M arrest
same,cells arrested in the G1 phase,MCF-7 cell cycle; 25 ug/ml,about 35%
same,cells arrested in the G1 phase,MCF-7 cell cycle; 50 ug/ml,about 90%
same,increase in the ratio of Bax/Bcl-2,Bax; 8.24uM of oridonin,~75%
same,Bax/Bcl-2,"Bax; 8.24 uM oridonin, CTRL 1",1.8
same,Bax,"Bax; 8.24 uM oridonin, CTRL 11.8",14.5
same,"ED50 values from MTT Assay, MCF-7",MCF-7 cells,1.71 µg/mL
same,absorbance reading of MTT,"MCF-7 cells; under 15 ug/ml of oridonin, FIG. 3",0
same,ratio of Bax/Bcl-2 by Western blot,[3],increased significantly
same,more cells arrested in the G1 phase compared to cells not exposed,"LNCaP cell cycle; 3 ug/ml of oridonin, FIG. 5",over 25%
same,cell cycle arrest phase,LNCaP cell cycle; oridonin,G1 cell cycle arrest
same,cells in the G1 phase of the cell cycle,"LNCaP cell cycle; oridonin 3 μg/ml, 24 hr, FIG. 4",over 65%
same,cells arrested in the G1 phase,"LNCaP cell cycle; oridonin, FIG. 9b",about 68%
same,increase in p53 concentration,p53; 8.2 uM of oridonin,Approximately 40%
same,increase in the ratio of p53/Bcl-2,"p53; 8.24uM oridonin, flow cytometry",100%
same,p53/Bcl-2,"p53; 8.24 uM oridonin, flow cytometry, CTRL 1",2.0
same,p53,"p53; 8.24 uM oridonin, flow cytometry, CTRL 8.8",12.3
same,increase in p53 concentration,p53; 13.74 uM of oridonin,~100%
